# According to the supplement of paper PMC13380429:
# Experiments:
# Conditions in all cases: 72 h
# HepG2 [1] = assay: relative viability EC50 (midpoint between 100% and the lowest measured viability); higher = less toxic
# Vero E6 [2] = assay: as above
# U2OS [3] = assay: as above
# Caco-2 [4] = assay: as above
# HepG2 [5] = assay: drug sensitivity score (DSS) for viability; higher = more toxic; extreme values may be limits of the assay
# Vero E6 [6] = assay: as above
# U2OS [7] = assay: as above
# Caco-2 [8] = assay: as above
# HepG2 [9] = assay: cell viability relative to DMSO; higher = less toxic
# Vero E6 [10] = assay: as above
# U2OS [11] = assay: as above
# Caco-2 [12] = assay: as above
# Calu-3 [13] = assay: relative viability EC50 (midpoint between 100% and the lowest measured viability); higher = less toxic
# Calu-3 [14] = assay: drug sensitivity score (DSS) for viability; higher = more toxic; extreme values may be limits of the assay
# Calu-3 [15] = assay: cell viability relative to DMSO; higher = less toxic
Compound,relative viability EC50 (HepG2 [1]),relative viability EC50 (Vero E6 [2]),relative viability EC50 (U2OS [3]),relative viability EC50 (Caco-2 [4]),drug sensitivity score (HepG2 [5]),drug sensitivity score (Vero E6 [6]),drug sensitivity score (U2OS [7]),drug sensitivity score (Caco-2 [8]),cell viability (HepG2 [9]; 1 nM),cell viability (HepG2 [9]; 10 nM),cell viability (HepG2 [9]; 100 nM),cell viability (HepG2 [9]; 1000 nM),cell viability (HepG2 [9]; 10000 nM),cell viability (Vero E6 [10]; 1 nM),cell viability (Vero E6 [10]; 10 nM),cell viability (Vero E6 [10]; 100 nM),cell viability (Vero E6 [10]; 1000 nM),cell viability (Vero E6 [10]; 10000 nM),cell viability (U2OS [11]; 1 nM),cell viability (U2OS [11]; 10 nM),cell viability (U2OS [11]; 100 nM),cell viability (U2OS [11]; 1000 nM),cell viability (U2OS [11]; 10000 nM),cell viability (Caco-2 [12]; 1 nM),cell viability (Caco-2 [12]; 10 nM),cell viability (Caco-2 [12]; 100 nM),cell viability (Caco-2 [12]; 1000 nM),cell viability (Caco-2 [12]; 10000 nM),relative viability EC50 (Calu-3 [13]),drug sensitivity score (Calu-3 [14]),cell viability (Calu-3 [15]; 1 nM),cell viability (Calu-3 [15]; 10 nM),cell viability (Calu-3 [15]; 100 nM),cell viability (Calu-3 [15]; 1000 nM),cell viability (Calu-3 [15]; 10000 nM)
CC(C[N+](C)(C)C)OC(N)=O (stereo unspecified) [bethanechol],> 10 µM,> 10 µM,> 10 µM,> 10 µM,0,0,0,0,97.1%,104%,92.1%,106%,106%,99.3%,91.8%,103%,86.8%,98.2%,100%,98.8%,98.3%,95.5%,95.7%,121%,111%,118%,97.4%,104%,–,–,–,–,–,–,–
C[C@@H](NC(=O)c1ncnc(N)c1Cl)c1ncc(C(=O)Nc2cc(C(F)(F)F)c(Cl)cn2)s1 [MLN2480],–,> 10 µM,> 10 µM,> 10 µM,3.5,0,0,0,102%,102%,101%,91.9%,57%,95.4%,104%,111%,108%,108%,102%,101%,103%,102%,95.4%,101%,96.4%,103%,103%,91.5%,–,–,–,–,–,–,–
Clc1ccc(-c2nc3sccn3c2/C=N/OCc2ccc(Cl)c(Cl)c2)cc1 [CITCO],> 10 µM,–,> 10 µM,> 10 µM,0,–,0,0,97%,104%,104%,104%,97.9%,–,–,–,–,–,96.3%,98.7%,99.5%,97.6%,94%,107%,98.5%,110%,94%,96.5%,> 10 µM,0,92.2%,88.4%,93.1%,93.6%,92.1%
Cc1cc(C)c(S(=O)(=O)Nc2cccc(C(F)(F)F)c2)c(C)c1 [m-3M3FBS],> 10 µM,–,> 10 µM,> 10 µM,0.4,–,0,0,101%,98.9%,93%,88.8%,90.6%,–,–,–,–,–,101%,97%,100%,103%,100%,111%,98.8%,108%,98.2%,106%,> 10 µM,0,94.5%,102%,95.8%,98.9%,99.4%
NCCCCN(Cc1nc2ccccc2[nH]1)[C@H]1CCCc2cccnc21,> 10 µM,–,> 10 µM,> 10 µM,0.2,–,0,0,100%,104%,97.6%,105%,82.8%,–,–,–,–,–,106%,100%,97.3%,96.6%,98.3%,100%,93.3%,97.1%,97.2%,104%,> 10 µM,0,98.9%,93.1%,96.2%,90.4%,89.8%
O=C(Nc1ccncc1)c1cc([N+](=O)[O-])ccc1Cl,> 10 µM,> 10 µM,> 10 µM,> 10 µM,0,0.9,0,0,103%,91.3%,105%,86%,99.4%,102%,97.3%,89.4%,88%,93.1%,99.5%,104%,99.7%,106%,93.2%,102%,86.1%,97.9%,96.3%,85.5%,–,–,–,–,–,–,–
Oc1ccc2ccccc2c1Cc1c(O)ccc2ccccc12 [ST-1859],> 10 µM,> 10 µM,> 10 µM,> 10 µM,0.5,0,0,0.8,103%,102%,93.9%,90.7%,86.9%,98.3%,104%,102%,93%,95.2%,95.1%,101%,98.2%,104%,96.5%,90.3%,92.6%,97.5%,101%,75.8%,–,2.7,87.4%,94.8%,91.9%,93.9%,64.6%
